The results in this text go back to patent publication US20230212131A1, “COLLAGEN 1 TRANSLATION INHIBITORS AND METHODS OF USE THEREOF” (Anima Biotech Inc., priority 2020, published 2023).

The experiment deals with collagen 1 (COL1). The experiment can be described thus: WI-38 collagen 1 inhibition assay. It counts as cell-based, human. As to conditions: Cellular EC50, WI-38 cells; values are classes of LogEC50. From the text: All compounds were profiled for cellular potency in inhibition of collagen 1 (COL1) protein translation using a phenotypic screening platform.
WI-38 cells (ATCC® CCL-75™) were maintained in MEM EAGLE (NEAA) W. GLUTAMIN (Biological Industries, Cat. 06-1040-15-1A) containing 10% fetal bovine serum (FBS) and 1% Penicillin-Streptomycin Solution. To synchronize the cells (cell cycle synchronization) prior to induction of collagen synthesis, the cells were starved using DMEM-low glucose supplemented with 0.25% FBS for two hours and then without FBS for 24 hours. To induce collagen synthesis, the cells were treated with a collagen induction cocktail for the indicated time. Compounds were added with induction.
Cells in 96-well or 384-well plates were fixed for 20 min in 4% paraformaldehyde (PFA, ENCO, Cat. sc-281692). Following two washes with 1×PBS, cells were treated with hydrogen peroxide (Acros, Cat: 7722-84-1) for 10 minutes and then washed twice with 1×PBS. Cells were then incubated over-night at 4° C. with Anti-Collagen I (Sigma-Aldrich, Cat: C 2456) antibody and washed three times with 1×PBS. Cells were then incubated with a suitable secondary fluorescently-tagged antibody and nuclei stained with DAPI, for 1 hour, and then washed 3 times with 1×PBS.
Cell images were taken with Operetta (Perkin Elmer, USA), a wide-field fluorescence microscope at 20× magnification. After acquisition, the images were transferred to Columbus software (Perkin-Elmer) for image analysis. In Columbus, cells were identified by their nucleus, using the “Find Nuceli” module and cytoplasm was detected based on the secondary antibody channel. Subsequently, the fluorescent signal was enumerated in the identified cell region. Data was exported to a data analysis and visualization software, Tibco Spotfire, USA.
Turning to `O=C(Nc1nc(-c2ccccc2Cl)cs1)c1ccc(N2CCOCC2)cc1Cl` [Compound 409, 2-chloro-N-(4-(2-chlorophenyl)thiazol-2-yl)-4-morpholinobenzamide], the “COL1 Efficacy (LogEC50)” value is on record as “++ (++: −5 to −6)”.

With `COc1ccc(C(=O)Nc2nc(-c3ccccc3Cl)cs2)cc1` [Compound 304, N-(4-(2-chlorophenyl)thiazol-2-yl)-4-methoxybenzamide], the “COL1 Efficacy (LogEC50)” value is “+++ (+++: <−6)”.

As to `CNCc1ccccc1-c1csc(NC(=O)c2ccc(N3CCN(S(C)(=O)=O)CC3)cn2)n1` [compound 457], the “COL1 Efficacy (LogEC50)” value is “− (−: inactive)”.

As for `COc1ccc(C(=O)Nc2nc(-c3cnn(C)c3)cs2)cc1` [Compound 331, 4-methoxy-N-[4-(1-methylpyrazol-4-yl)thiazol-2-yl]benzamide], the “COL1 Efficacy (LogEC50)” value is listed as “+ (+: >−5)”.

Regarding `O=C(Nc1nc(-c2ccccc2Cl)cs1)c1ccc(N2CCNCC2)cc1` [Compound 334, N-(4-(2-chlorophenyl)thiazol-2-yl)-4-(piperazin-1-yl)benzamide], the “COL1 Efficacy (LogEC50)” value was “+++ (+++: <−6)”.

As for `O=C(Nc1nc(-c2ccccc2Cl)co1)c1ccc(N2CCOCC2)cc1` [Compound 368, N-[4-(2-chlorophenyl)oxazol-2-yl]-4-morpholino-benzamide], the “COL1 Efficacy (LogEC50)” value was “++ (++: −5 to −6)”.

On to `O=C(Nc1nc(-c2ccccc2Cl)cs1)c1ccc(C(=O)N2CCOCC2)cc1` [compound 384, N-(4-(2-chlorophenyl)thiazol-2-yl)-4-(morpholine-4-carbonyl)benzamide], for which the “COL1 Efficacy (LogEC50)” value is recorded as “++ (++: −5 to −6)”.

For `COc1ncc(C(=O)Nc2nc(-c3cccnc3OC)cs2)cn1` [compound 356, 2-methoxy-N-[4-(2-methoxy-3-pyridyl)thiazol-2-yl]pyrimidine-5-carboxamide], the “COL1 Efficacy (LogEC50)” value is “− (−: inactive)”.

For the compound `COCCOc1ccccc1-c1csc(NC(=O)c2ccc(N3CCOCC3)cc2)n1` [Compound 378, N-(4-(2-(2-methoxyethoxy)phenyl)thiazol-2-yl)-4-morpholinobenzamide], the “COL1 Efficacy (LogEC50)” value was “+ (+: >−5)”.

As to `O=C(Nc1nc(-c2ccccc2Cl)cs1)c1ccc(N2CCC[C@H](O)C2)cn1` [compound 488, (S)—N-(4-(2-chlorophenyl)thiazol-2-yl)-5-(3-hydroxypiperidin-1-yl)picolinamide], the “COL1 Efficacy (LogEC50)” value is on record as “+++ (+++: <−6)”.

As for `O=C(Nc1nc(-c2ccccc2Cl)cs1)c1ccc(C2CCS(=O)(=O)CC2)cn1` [Compound 383, N-(4-(2-chlorophenyl)thiazol-2-yl)-5-(1,1-dioxidotetrahydro-2H-thiopyran-4-yl)picolinamide], the “COL1 Efficacy (LogEC50)” value is reported as “+++ (+++: <−6)”.

Consider `O=C(Nc1nc(-c2ccccc2Cl)cs1)c1ccc(C2CCOCC2)cn1` [Compound 381, N-(4-(2-chlorophenyl)thiazol-2-yl)-5-(tetrahydro-2H-pyran-4-yl)picolinamide], for which the “COL1 Efficacy (LogEC50)” value is “+++ (+++: <−6)”.

In the case of `CS(=O)(=O)N1CCN(C2CCC(C(=O)Nc3nc(-c4ccccc4Cl)cs3)CC2)CC1` (single isomer, unassigned) [Compound 435, (1r,4r)-N-(4-(2-chlorophenyl)thiazol-2-yl)-4-(4-(methylsulfonyl)piperazin-1-yl)cyclohexane-1-carboxamide], the “COL1 Efficacy (LogEC50)” value is given as “++ (++: −5 to −6)”.

For `NC1CCN(c2ccc(C(=O)Nc3nc(-c4ccccc4Cl)cs3)nc2)CC1` [compound 475, 5-(4-aminopiperidin-1-yl)-N-(4-(2-chlorophenyl)thiazol-2-yl)picolinamide], the “COL1 Efficacy (LogEC50)” value is recorded as “+++ (+++: <−6)”.

As to `COCCOc1ccccc1-c1csc(NC(=O)c2ccc(OC)cc2)n1` [Compound 328, 4-methoxy-N-[4-[2-(2-methoxyethoxy)phenyl]thiazol-2-yl]benzamide], the “COL1 Efficacy (LogEC50)” value is listed as “++ (++: −5 to −6)”.

For the compound `O=C(Nc1nc(N2CCCC2=O)cs1)c1ccc(N2CCOCC2)cn1` [Compound 395, 5-morpholino-N-(4-(2-oxopyrrolidin-1-yl)thiazol-2-yl)picolinamide], the “COL1 Efficacy (LogEC50)” value was “+ (+: >−5)”.
